Test [1] concerns acute myelogenous leukemia cells (MV-4-11 cells). Description: Cytotoxicity to acute myelogenous leukemia cells (MV-4-11 cells), CCK-8. Particulars: Homo sapiens, MV4-11, 72 h.
Test [2] addresses BRD4 (BD1+BD2) bromodomain (Homo sapiens (Human), UniProt O60885). The test can be described thus: BRD4 binding inhibition (AlphaScreen, GST-BRD4 vs tetraacetylated histone H4 peptide). An outline of the steps: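 AlphaScreen read after 30 min dark incubation at room temperature with glutathione acceptor/streptavidin donor beads (10 μg/ml each). The beads were added to compound plus 100 nM biotin-H4 (K5,8,12,16-acetyl) peptide and 100 nM GST-BRD4 BD1+BD2 in pH 7.4 HEPES/Tween/BSA/DTT buffer.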

[3] abbreviates: read-out: IC50, cytotoxicity against acute myelogenous leukemia cells.
The mark [4] stands for this setting: read-out: MV-4-11 Cytotoxicity IC50.
Setting [5] is: GST-BRD4 (BD1+BD2) / biotinylated acetyl-histone H4 (Lys5,8,12,16) peptide, read-out: IC50, BRD4 binding inhibition.
The mark [6] stands for this setting: GST-BRD4 (BD1+BD2) vs biotinylated acetyl-histone H4 peptide, AlphaScreen, read-out: BRD4 IC50.

Where two headings read alike, the source gives them in different places.

Regarding `CCCOC(=O)NCCCCNc1nc2cc(-c3nc4ccccc4n3C)ccc2n2c(C)nnc12` [Example 228, {4-[1-methyl-7-(1-methyl-1H-benzoimidazole-2-yl)-[1,2,4]triazolo[4,3-a]quinoxaline-4-ylamino]-butyl}-carbamic acid propylester], the IC50 in test [1] (setting [3]) is ≤ 200 nM; in test [1] (setting [4]) it was 140 nM; in test [2] (setting [5]), ≤ 10 nM; in test [2] (setting [6]), 7 nM.

With `Cc1nnc2c(NCCCCNC(=O)OC3CCCC3)nc3cc(-c4nc5ccccc5n4C)ccc3n12` [Example 229, {4-[1-methyl-7-(1-methyl-1H-benzoimidazole-2-yl)-[1,2,4]triazolo[4,3-a]quinoxaline-4-ylamino]-butyl}-carbamic acid cyclopentylester], the IC50 in test [1] (setting [3]) is ≤ 200 nM; in test [1] (setting [4]), 150 nM; in test [2] (setting [5]), ≤ 10 nM; in test [2] (setting [6]), 3 nM.

On to `Cc1nnc2c(NCCCCNC(=O)C(C)(C)C)nc3cc(-c4nc5ccccc5n4C)ccc3n12` [Example 230, 2,2-dimethyl-N-{4-[1-methyl-7-(1-methyl-1H-benzoimidazole-2-yl)-[1,2,4]triazolo[4,3-a]quinoxaline-4-ylamino]-butyl}-propionamide], for which the results for the IC50 in test [1] (setting [4]), in test [2] (setting [5]) and in test [2] (setting [6]) were 580 nM, ≤ 50 nM and 13 nM, respectively.

`CCC(F)(F)C(=O)NCCCCNc1nc2cc(-c3nc4ccccc4n3C)ccc2n2c(C)nnc12` [Example 233, 2,2-difluoro-N-{4-[1-methyl-7-(1-methyl-1H-benzoimidazole-2-yl)-[1,2,4]triazolo[4,3-a]quinoxaline-4-ylamino]-butyl}-butyramide]: the IC50 was ≤ 200 nM in test [1] (setting [3]), 71 nM in test [1] (setting [4]), ≤ 10 nM in test [2] (setting [5]) and 2 nM in test [2] (setting [6]).

Take `Cc1nnc2c(NCCCCNC(=O)[C@@H](O)C(C)C)nc3cc(-c4nc5ccccc5n4C)ccc3n12` [Example 234, 2-(S)-hydroxy-3-methyl-N-{4-[1-methyl-7-(1-methyl-1H-benzoimidazole-2-yl)-[1,2,4]triazolo[4,3-a]quinoxaline-4-ylamino]-butyl}-butyramide]: the IC50 in test [1] (setting [3]) is ≤ 200 nM; in test [1] (setting [4]), 47 nM; in test [2] (setting [5]) it was ≤ 10 nM; in test [2] (setting [6]), 6 nM.

Take `Cc1nnc2c(NCCCCNC(=O)[C@H](O)C(C)C)nc3cc(-c4nc5ccccc5n4C)ccc3n12` [Example 235, 2-(R)-hydroxy-3-methyl-N-{4-[1-methyl-7-(1-methyl-1H-benzimidazole-2-yl)-[1,2,4]triazolo[4,3-a]quinoxaline-4-ylamino]-butyl}-butyramide]: the values for the IC50 in test [1] (setting [4]), in test [2] (setting [5]) and in test [2] (setting [6]) were 390 nM, ≤ 50 nM and 11 nM, respectively.

For the molecule `Cc1nnc2c(NCCCCNC(=O)CCC(C)C)nc3cc(-c4nc5ccccc5n4C)ccc3n12` [Example 236, 4-methyl-pentanoic acid-{4-[1-methyl-7-(1-methyl-1H-benzoimidazole-2-yl)-[1,2,4]triazolo[4,3-a]quinoxaline-4-ylamino]-butyl}-amide], the IC50 in test [1] (setting [3]) is ≤ 200 nM; in test [1] (setting [4]), 87 nM; in test [2] (setting [5]), ≤ 10 nM; in test [2] (setting [6]) it was 2 nM.

`COc1ccccc1C(=O)NCCCCNc1nc2cc(-c3nc4ccccc4n3C)ccc2n2c(C)nnc12` [Example 237, 2-methoxy-N-{4-[1-methyl-7-(1-methyl-1H-benzoimidazole-2-yl)-[1,2,4]triazolo[4,3-a]quinoxaline-4-ylamino]-butyl}-benzamide]: the IC50 was 500 nM in test [1] (setting [4]), ≤ 10 nM in test [2] (setting [5]) and 0.6 nM in test [2] (setting [6]).

For `Cc1nnc2c(NCCCCNC(=O)NC(C)C)nc3cc(-c4nc5ccccc5n4C)ccc3n12` [Example 238, 1-isopropyl-3-{4-[1-methyl-7-(1-methyl-1H-benzoimidazole-2-yl)-[1,2,4]triazolo[4,3-a]quinoxaline-4-ylamino]-butyl}-urea], the IC50 was 650 nM in test [1] (setting [4]), ≤ 50 nM in test [2] (setting [5]) and 15 nM in test [2] (setting [6]).

`Cc1nnc2c(NCCCCNC(=O)NC3CCCCC3)nc3cc(-c4nc5ccccc5n4C)ccc3n12` [Example 239, 1-cyclohexyl-3-{4-[1-methyl-7-(1-methyl-1H-benzoimidazole-2-yl)-[1,2,4]triazolo[4,3-a]quinoxaline-4-ylamino]-butyl}-urea]: the results for the IC50 in test [1] (setting [4]), in test [2] (setting [5]) and in test [2] (setting [6]) were 660 nM, ≤ 50 nM and 18 nM, respectively.

`CCCn1c(-c2ccc3c(c2)nc(NCCCCNC(=O)CC(C)C)c2nnc(C)n23)nc2ccccc21` [Example 240, 3-methyl-N-{4-[1-methyl-7-(1-propyl-1H-benzoimidazole-2-yl)-[1,2,4]triazolo[4,3-a]quinoxaline-4-ylamino]-butyl}-butyramide]: the IC50 in test [1] (setting [3]) was ≤ 200 nM; in test [1] (setting [4]), 158 nM; in test [2] (setting [5]), ≤ 10 nM; in test [2] (setting [6]), 0.9 nM.

Consider `Cc1nnc2c(NCCCCNC(=O)CC(C)C)nc3cc([N+](=O)[O-])ccc3n12` [Example 244], for which the figures for the IC50 in test [1] (setting [4]) and in test [2] (setting [6]) were 260 nM and 89 nM, respectively.

Regarding `Cc1nnc2c(NCCCCNC(=O)CC(C)C)nc3cc(N)ccc3n12` [Example 245, N-[4-(7-amino-1-methyl-[1,2,4]triazolo[4,3-a]quinoxaline-4-ylamino)-butyl]-3-methyl-butyramide], the IC50 in test [1] (setting [4]) was 361 nM; in test [2] (setting [5]) it was ≤ 50 nM; in test [2] (setting [6]) it was 32 nM.

On to `CCCNc1ccc2c(c1)nc(NCCCCNC(=O)CC(C)C)c1nnc(C)n12` [Example 253, 3-methyl-N-[4-(1-methyl-7-propylamino-[1,2,4]triazolo[4,3-a]quinoxaline-4-ylamino)-butyl]-butyramide], for which the values for the IC50 in test [1] (setting [4]), in test [2] (setting [5]) and in test [2] (setting [6]) were 235 nM, ≤ 50 nM and 50 nM, respectively.

`Cc1nnc2c(NCCCCNC(=O)CC(C)C)nc3cc(NCCCC#N)ccc3n12` [Example 254, N-{4-[7-(3-cyano-propylamino)-1-methyl-[1,2,4]triazolo[4,3-a]quinoxaline-4-ylamino]-butyl}-3-methyl-butyramide]: the IC50 in test [1] (setting [3]) is ≤ 200 nM; in test [1] (setting [4]), 101 nM; in test [2] (setting [5]), ≤ 10 nM; in test [2] (setting [6]), 7 nM.

Regarding `Cc1nnc2c(NCCCCNC(=O)CC(C)C)nc3cc(NS(C)(=O)=O)ccc3n12` [Example 257, N-[4-(7-methanesulfonylamino-1-methyl-[1,2,4]triazolo[4,3-a]quinoxaline-4-ylamino)-butyl]-3-methyl-butyramide], the concentration for half-maximal inhibition (IC50) is 327 nM in test [1] (setting [4]), ≤ 10 nM in test [2] (setting [5]) and 8 nM in test [2] (setting [6]).

As for `Cc1nnc2c(NCCCCNC(=O)CC(C)C)nc3cc(NS(=O)(=O)CC(F)(F)F)ccc3n12` [Example 258], the IC50 is 345 nM in test [1] (setting [4]), ≤ 50 nM in test [2] (setting [5]) and 49 nM in test [2] (setting [6]).

Consider `Cc1nnc2c(NCCCCNC(=O)CC(C)(C)C)nc3ccc(OC(F)(F)F)cc3n12` [Example 266, 3,3-dimethyl-N-[4-(1-methyl-8-trifluoromethoxy-[1,2,4]triazolo[4,3-a]quinoxaline-4-ylamino)-butyl]-butyramide], for which the IC50 is 540 nM in test [1] (setting [4]), ≤ 50 nM in test [2] (setting [5]) and 43 nM in test [2] (setting [6]).

Take `Cc1nnc2c(NCCCCNC(=O)c3ccccc3)nc3ccc(OC(F)(F)F)cc3n12` [Example 267, N-[4-(1-methyl-8-trifluoromethoxy-[1,2,4]triazolo[4,3-a]quinoxaline-4-ylamino)-butyl]-benzamide]: the values for the IC50 in test [1] (setting [4]), in test [2] (setting [5]) and in test [2] (setting [6]) were 570 nM, ≤ 50 nM and 39 nM, respectively.

For the molecule `Cc1nnc2c(NCCCCNC(=O)c3ccccc3Cl)nc3ccc(OC(F)(F)F)cc3n12` [Example 268, 2-chloro-N-[4-(1-methyl-8-trifluoromethoxy-[1,2,4]triazolo[4,3-a]quinoxaline-4-ylamino)-butyl]-benzamide], the IC50 in test [1] (setting [4]) is 500 nM; in test [2] (setting [5]), ≤ 50 nM; in test [2] (setting [6]) it was 35 nM.

On to `Cc1nnc2c(NCCCCNC(=O)CC(C)(C)C)nc3cc(OC(F)(F)F)ccc3n12` [Example 272, 3,3-dimethyl-N-[4-(1-methyl-7-trifluoromethoxy-[1,2,4]triazolo[4,3-a]quinoxaline-4-ylamino)-butyl]-butyramide], for which the half-inhibitory concentration (IC50) in test [1] (setting [4]) was 810 nM; in test [2] (setting [5]), ≤ 50 nM; in test [2] (setting [6]), 25 nM.

Take `Cc1nnc2c(NCCCCNC(=O)c3ccccc3)nc3cc(OC(F)(F)F)ccc3n12` [Example 273, N-[4-(1-methyl-7-trifluoromethoxy-[1,2,4]triazolo[4,3-a]quinoxaline-4-ylamino)-butyl]-benzamide]: the IC50 in test [1] (setting [4]) is 510 nM; in test [2] (setting [5]) it was ≤ 50 nM; in test [2] (setting [6]), 49 nM.

In the case of `Cc1nnc2c(NCCCCNC(=O)c3ccccc3Cl)nc3cc(OC(F)(F)F)ccc3n12` [Example 274, 2-chloro-N-[4-(1-methyl-7-trifluoromethoxy-[1,2,4]triazolo[4,3-a]quinoxaline-4-ylamino)-butyl]-benzamide], the results for the half-inhibitory concentration (IC50) in test [1] (setting [4]), in test [2] (setting [5]) and in test [2] (setting [6]) were 280 nM, ≤ 50 nM and 27 nM, respectively.

On to `COc1ccc2c(c1)nc(NCCCCNC(=O)OC(C)(C)C)c1nnc(C)n12` [Example 275, [4-(7-methoxy-1-methyl-[1,2,4]triazolo[4,3-a]quinoxaline-4-ylamino)-butyl]-carbamic acid-tert-butylester], for which the IC50 in test [1] (setting [4]) is 330 nM; in test [2] (setting [5]), ≤ 50 nM; in test [2] (setting [6]), 38 nM.

The values above are taken from patent US11028090B2 (Dong Wha Pharm. Co., Ltd., priority 2017, dated 2021).
